Entries after “also recorded” stand apart in the source; their conditions may differ.
Experiments:
plasma sST2 protein = experiment: Association analysis of plasma sST2 protein level (ELISA) and medication in Hong Kong female AD patients; format: in vivo, human; details: female AD patients taking trazodone (n=15) vs not taking (n=149), Hong Kong Chinese AD cohort, linear regression adjusted for age and population structure, ***P<0.001
Excerpt: Subject Recruitment for the Hong Kong Chinese AD Cohort: A cohort of Hong Kong Chinese was recruited from individuals who visited the Specialist Outpatient Department of the Prince of Wales Hospital, the Chinese University of Hong Kong. A total of 427 subjects were recruited: 233 with AD and 194 normal controls (NCs). All subjects were ≥60 years old. The clinical diagnosis of AD was established based on the American Psychiatric Association's Diagnostic and Statistical Manual of Mental Disorders, Fifth Edition (DSM-5). All subjects were given medical history assessment, cognitive and functional assessment through the Montreal Cognitive Assessment (MoCA) test, and neuroimaging assessment by MRI. Each individual's data, including age, sex, education, medical history, and cardiovascular disease history, were recorded. Individuals with any significant neurological disease or psychiatric disorder were excluded. The plasma of subjects was collected and stored at −80° C. as aliquots until use. […] Absolute blood cell count was determined by complete blood count (CBC) at the Prince of Wales Hospital. […]
Detection of Soluble ST2 Protein by ELISA: Human plasma and CSF soluble ST2 (sST2) protein levels were measured using the Human ST2/IL-33 R Quantikine ELISA Kit (DST200). […]

[1] = Association analysis of cognitive performance (MoCA score) and medication history in female AD patients; format: in vivo, human; details: association with medication history, P=0.0202
Excerpt: Subject Recruitment for the Hong Kong Chinese AD Cohort: A cohort of Hong Kong Chinese was recruited from individuals who visited the Specialist Outpatient Department of the Prince of Wales Hospital, the Chinese University of Hong Kong. A total of 427 subjects were recruited: 233 with AD and 194 normal controls (NCs). All subjects were ≥60 years old. The clinical diagnosis of AD was established based on the American Psychiatric Association's Diagnostic and Statistical Manual of Mental Disorders, Fifth Edition (DSM-5). All subjects were given medical history assessment, cognitive and functional assessment through the Montreal Cognitive Assessment (MoCA) test, and neuroimaging assessment by MRI. Each individual's data, including age, sex, education, medical history, and cardiovascular disease history, were recorded. Individuals with any significant neurological disease or psychiatric disorder were excluded. The plasma of subjects was collected and stored at −80° C. as aliquots until use. This study was approved by the Prince of Wales Hospital, the Chinese University of Hong Kong, and the Hong Kong University of Science and Technology. All participants provided written informed consent for both study enrollment and sample collection. Absolute blood cell count was determined by complete blood count (CBC) at the Prince of Wales Hospital. […]

serum sST2 = experiment: Trazodone treatment of mice, serum sST2 level by ELISA; format: in vivo, mouse; details: 18 mo
Protocol: Trazodone treatment of mice: Mice were treated with Trazodone or vehicle control either by intraperitoneal (IP) injection or oral administration. For IP injection, mice were daily injected with 50 mg/kg Trazodone or vehicle (saline). For oral administration, mice were daily fed with 100 mg/kg Trazodone or vehicle (water). After the 2 days, 4 days, 7 days or 14 days of treatment, mouse blood was collected by intracardial bleed at time of sacrifice. The blood without anticoagulants was incubated at room temperature for 2 h and then centrifuged at 2,000×g for 20 min. The serum sST2 level was measured using the Mouse ST2/IL-33 R Quantikine ELISA Kit (MST200, R&D).

O=c1n(CCCN2CCN(c3cccc(Cl)c3)CC2)nc2ccccn12 [Trazodone, trazodone]
plasma sST2 level (plasma sST2 protein): decreased plasma sST2 level
plasma sST2 level (plasma sST2 protein; listed as trazodone): effective agent to lower plasma sST2 level
cognitive performance (MoCA score) [1]: altered cognitive performance
serum sST2 level (serum sST2; female APP/PS1 mice, daily 100 mg/kg oral for 7 or 14 days vs vehicle, n=5/group, 100 mg/kg): reduction of serum sST2 level; also recorded: down-regulates the serum sST2 level
serum sST2 level (serum sST2; female wildtype mice, daily 50 mg/kg IP or 100 mg/kg oral for 2 or 4 days vs vehicle, n=2/group): reduction of serum sST2 level; also recorded: down-regulates the serum sST2 level
